Measurements as given in US20040029965A1, “Formulations for reducing or eliminating toxicity of enviromental hormones containing ursodeoxycholic acid” (priority 2000, published 2004).

Tests used:
Type in all cases: in vivo
C57B1/6J mice [1] = assay: Changes in body weight of mice after a single subcutaneous injection of TCDD; details: for Weight (body weight): at sacrifice
Protocol: (§1) Male C57B1/6J mice of 5 weeks old having the average weight of 18-22 g which had been bred in CRJ (Charles River in Japan) were purchased and used in this example as experimental animals. Those mice were acclimated under the constant breeding condition, i.e. the temperature of 24±1° C., the humidity of 60±10% and the light and darkness cycle of 12 hours, for one week and thereafter, utilized in the experiment.
(§2) The Experimental animals were supplied with Purina powdered feed (purchased from Hae Eun Trade) and supplied with water ad libitum. All the animals were weighed twice a week during experimentation.
(§3) 2,3,7,8-tetrachlorodibenzo-p-dioxin (TCDD) dissolved in toluene (purity of 95% or more as a result of gas chromatography analysis), manufactured by Chem. Services Inc. in USA, was volatilized with nitrogen to obtain powder. The obtained powder was dissolved in a mixed solvent containing acetone and corn oil with a volume ratio of 1:6. The resulting solution each containing 110, 27.5 and 6.9 μg/kg of TCDD was subcutaneously injected to mice at a volume of 5 ml per body weight. […] The mice were supplied with the feed from 10 days before (pre-administration) to 60 days after administration of TCDD (post-administration).
(§4) The results are expressed as Mean±Standard Deviation values. For statistical analysis of the body weight, feed and water uptake, biochemical findings, hematological findings and the weight of organ in an acute toxicity test, verification was performed by one way analysis of variance (ANOVA) in case of equal distribution. In case significance was recognized in ANOVA, the Student's t-test was performed in the levels of p<0.05 and p<0.01.

C57B1/6J mice [2] = assay: Electron microscopy of testes (cellular microstructures); details: TCDD 27.5 μg/kg alone; FIG. 9
Protocol: as §3
Upon completion of the experiment for 60 days, the experimental animals were fasted for 24 hours and anesthetized with ether. Then, they were abdominally incised and blood was gathered from abdominal vena cava. They were sacrificed by the release of blood. Liver, kidneys, testes and epididymides were extracted and all the extracted organs were weighed. Only the testes were separately kept and observed under optical and electron microscopes. For biochemical finding test, serum was separated from blood with a centrifuge and the separated serum was analyzed with an automated blood biochemical analyzer, Dimension (Dupont, USA). Blood was put to another blood gathering bottle and then, analyzed with an automated blood cell analyzer, Celldyn (Abbott, USA). […]

C57B1/6J mice [3] = assay: Water uptake of mice after a single subcutaneous injection of TCDD; design: unit not given here
Protocol: as §1, §2, §3, §4

In the case of Clc1cc2c(cc1Cl)Oc1cc(Cl)c(Cl)cc1O2 [TCDD, 2,3,7,8-tetrachlorodibenzo-p-dioxin], the body weight (C57B1/6J mice [1]; TCDD 6.9 μg/kg alone, 0 day) is reported as 20.22 ± 0.31, the body weight (C57B1/6J mice [1]; TCDD 6.9 μg/kg alone, 12 days) is reported as 22.27 ± 0.37 and the body weight (C57B1/6J mice [1]; TCDD 6.9 μg/kg alone, 22 days) is reported as 23.68 ± 0.36. The body weight (C57B1/6J mice [1]; TCDD 6.9 μg/kg alone, 32 days) was 24.37 ± 0.48, the body weight (C57B1/6J mice [1]; TCDD 6.9 μg/kg alone, 39 days) was 25.35 ± 0.66 and the body weight (C57B1/6J mice [1]; TCDD 6.9 μg/kg alone, 50 days) was 27.03 ± 1.35. The body weight (C57B1/6J mice [1]; TCDD 6.9 μg/kg alone, 59 days) was 25.98 ± 1.44, the “Weight (body weight)” value (C57B1/6J mice [1]; TCDD 6.9 μg/kg alone) was 22.96 ± 3.97 g and the body weight (C57B1/6J mice [1]; TCDD 27.5 μg/kg alone, 0 day) was 19.54 ± 0.22. It also gave a body weight (C57B1/6J mice [1]; TCDD 27.5 μg/kg alone, 12 days) of 20.91 ± 0.52, a body weight (C57B1/6J mice [1]; TCDD 27.5 μg/kg alone, 22 days) of 19.82 ± 1.14 and a body weight (C57B1/6J mice [1]; TCDD 27.5 μg/kg alone, 32 days) of 18.54 ± 1.16. The body weight (C57B1/6J mice [1]; TCDD 27.5 μg/kg alone, 39 days) was 17.80 ± 1.40, the body weight (C57B1/6J mice [1]; TCDD 27.5 μg/kg alone, 50 days) was 16.74 ± 1.22 and the body weight (C57B1/6J mice [1]; TCDD 27.5 μg/kg alone, 59 days) was 15.72 ± 1.17. For the same compound, the “Weight (body weight)” value (C57B1/6J mice [1]; TCDD 27.5 μg/kg alone) was 16.18 ± 2.51 g, the body weight (C57B1/6J mice [1]; TCDD 110.0 μg/kg alone, 0 day) was 19.36 ± 0.31 and the body weight (C57B1/6J mice [1]; TCDD 110.0 μg/kg alone, 12 days) was 19.96 ± 0.32. It also gave a body weight (C57B1/6J mice [1]; TCDD 110.0 μg/kg alone, 22 days) of 20.02 ± 0.47, a body weight (C57B1/6J mice [1]; TCDD 110.0 μg/kg alone, 32 days) of 19.84 ± 0.55 and a body weight (C57B1/6J mice [1]; TCDD 110.0 μg/kg alone, 39 days) of 17.62 ± 1.14. For the same compound, the “heads of sperms, electron microphotograph” value (C57B1/6J mice [2]) was “Heads of sperms were frequently observed in cytoplasmic vacuoles of Sertoli cells”, the water uptake (C57B1/6J mice [3]; TCDD 6.9 μg/kg alone, 10 days) was 4.23 ± 0.52 and the water uptake (C57B1/6J mice [3]; TCDD 6.9 μg/kg alone, 20 days) was 4.08 ± 0.72. For the same compound, the water uptake (C57B1/6J mice [3]; TCDD 6.9 μg/kg alone, 30 days) was 4.70 ± 0.42, the water uptake (C57B1/6J mice [3]; TCDD 6.9 μg/kg alone, 40 days) was 4.30 ± 0.42 and the water uptake (C57B1/6J mice [3]; TCDD 6.9 μg/kg alone, 50 days) was 4.72 ± 0.39. It also gave a water uptake (C57B1/6J mice [3]; TCDD 6.9 μg/kg alone, 60 days) of 4.88 ± 0.17, a water uptake (C57B1/6J mice [3]; TCDD 27.5 μg/kg alone, 10 days) of 3.38 ± 0.75 and a water uptake (C57B1/6J mice [3]; TCDD 27.5 μg/kg alone, 20 days) of 3.58 ± 0.14. It also gave a water uptake (C57B1/6J mice [3]; TCDD 27.5 μg/kg alone, 30 days) of 3.10 ± 0.14, a water uptake (C57B1/6J mice [3]; TCDD 27.5 μg/kg alone, 40 days) of 3.10 ± 0.14 and a water uptake (C57B1/6J mice [3]; TCDD 27.5 μg/kg alone, 50 days) of 2.89 ± 0.63. The water uptake (C57B1/6J mice [3]; TCDD 27.5 μg/kg alone, 60 days) was 3.19 ± 0.21, the water uptake (C57B1/6J mice [3]; TCDD 110.0 μg/kg alone, 10 days) was 3.27 ± 0.78 and the water uptake (C57B1/6J mice [3]; TCDD 110.0 μg/kg alone, 20 days) was 4.00 ± 0.66. The water uptake (C57B1/6J mice [3]; TCDD 110.0 μg/kg alone, 30 days) was 4.70 ± 0.42.
